Test results as given in patent US9221822B2, “Thiazolopyrimidine modulators as immunosuppressive agents” (Katholieke Universiteit Leuven, K.U.Leuven R&D, priority 2009, dated 2015).

Tested on: Human peripheral blood mononuclear cells (PBMCs) as Responder cells, RPMI 1788 Stimulator cells
Experiment: Mixed Lymphocyte Reaction (MLR) test
Type: cell-based
Details: 6 days coculture, 3H-thymidine incorporation
Description: Human peripheral blood mononuclear cells (PBMCs) were isolated from buffy coats, obtained from healthy blood donors by Ficoll (Lymphoprep, Axis-Shield PoC AS, Oslo, Norway) density-gradient centrifugation. The cells at the Ficoll-plasma interface were washed three times and used as “Responder” cells. RPMI 1788 (ATCC, N^o CCL-156) cells were treated with mitomycin C (Kyowa, Nycomed, Brussel, Belgium) and used as “Stimulator” cells. Responder cells (0.12×10^6), Stimulator cells (0.045×10^6) and compounds (in different concentrations) were cocultured for 6 days in RPMI 1640 medium (BioWhittaker, Lonza, Belgium) supplemented with 10% fetal calf serum, 100 U/ml Geneticin (Gibco, LifeTechnologies, UK). Cells were cultured in triplicate in flat-bottomed 96-well microtiter tissue culture plates (TTP, Switzerland). After 5 days, cells were pulsed with 1 μCi of methyl-^3H thymidine (MP Biomedicals, USA), harvested 18 h later on glass filter paper and counted. Proliferation values were expressed as counts per minute (cpm), and converted to % inhibition with respect to a blank MLR test (identical but without added compound). […]

[1] = Homo sapiens, RPMI-1788, lowest concentration giving 50% inhibition of the MLR

Structure (SMILES) | IC50 [1] [nM] | IC50 (lowest concentration giving 50% inhibition of the MLR) [nM]
CCC(c1ccc(F)cc1)c1nc2c(N3CCN(C(=O)COc4ccc(Cl)cc4)CC3)nc(N)nc2s1 (stereo not drawn) [Example 150, 5-amino-2-[1-(4-fluorophenyl)propyl]-7-(4-[2-(4-chlorophenoxy)acetyl]piperazin-1-yl)thiazolo[5,4-d]pyrimidine] | 5390 | –
N#Cc1ccc(NC(=O)N2CCN(c3nc(N)nc4sc(-c5ccc(F)cc5)nc34)CC2)cc1 [Example 216, 4-(5-amino-2-(4-fluorophenyl)thiazolo[5,4-d]pyrimidin-7-yl)-N-(4-cyanophenyl)piperazine-1-carboxamide] | 19 | –
N#Cc1ccc(NC(=O)N2CCN(c3nc(N)nc4sc(-c5cccnc5)nc34)CC2)cc1 [Example 279, 4-(5-amino-2-(pyridin-3-yl)thiazolo[5,4-d]pyrimidin-7-yl)-N-(4-cyanophenyl)piperazine-1-carboxamide] | 100 | –
Nc1nc(N2CCN(C(=O)COc3ccc(Cl)cc3Cl)CC2)c2nc(-c3ccc(F)cc3)sc2n1 [Example 212, 1-(4-(5-amino-2-(4-fluorophenyl)thiazolo[5,4-d]pyrimidin-7-yl)piperazin-1-yl)-2-(2,4-dichlorophenoxy)ethanone] | 375 | –
CC(C)N(C(=O)N1CCN(c2nc(N)nc3sc(-c4ccc(F)cc4)cc23)CC1)C(C)C [Example 347, 4-(2-amino-6-(4-fluorophenyl)thieno[2,3-d]pyrimidin-4-yl)-N,N-diisopropylpiperazine-1-carboxamide] | 8200 | –
CCCCCc1nc2c(N3CCN(C(=O)COc4ccc(Cl)cc4)CC3)nc(N)nc2s1 [Example 297, 1-(4-(5-amino-2-pentylthiazolo[5,4-d]pyrimidin-7-yl)piperazin-1-yl)-2-(4-chlorophenoxy)ethanone] | 690 | –
CCOC(=O)c1nc(N2CCN(C(=O)COc3ccc(Cl)cc3)CC2)c2cc(-c3ccc(F)cc3)sc2n1 [Example 353, ethyl 4-(4-(2-(4-chlorophenoxy)acetyl)piperazin-1-yl)-6-(4-fluorophenyl)thieno[2,3-d]pyrimidine-2-carboxylate] | > 10000 | –
Nc1nc(N2CCN(C(=O)COc3ccc(Cl)cc3)CC2)c2nc(Cc3ccc(Cl)cc3)sc2n1 [Example 122, 5-amino-7-[4-(4-chlorophenoxyacetyl)piperazin-1-yl]-2-(4-chlorophenylmethyl)thiazolo[5,4-d]pyrimidine] | > 10000 | –
Nc1nc(N2CCN(C(=O)COc3ccc(Cl)cc3)CC2)c2nc(-c3ccc(F)cc3)[nH]c2n1 [Example 389, 1-(4-(2-amino-8-(4-fluorophenyl)-9H-purin-6-yl)piperazin-1-yl)-2-(4-chlorophenoxy)ethanone] | 810 | –
CN(C(=O)CN1CCN(c2nc(N)nc3oc(CCc4ccc(F)cc4)nc23)CC1)c1ccccc1 [Example 198, 5-amino-2-[2-(4-fluorophenyl)ethyl]-7-(4-[(methylphenyl-carbamoyl)methyl]piperazin-1-yl)-oxazolo[5,4-d]pyrimidine] | > 10000 | –
COc1cccc(C(=O)N2CCN(c3nc(N)nc4[nH]c(-c5ccc(F)cc5)nc34)CC2)c1 [Example 402, (4-(2-amino-8-(4-fluorophenyl)-9H-purin-6-yl)piperazin-1-yl)(3-methoxyphenyl)methanone] | > 10000 | –
Cc1cccc(OCC(=O)N2CCN(c3nc(N)nc4sc(-c5cccnc5)nc34)CC2)c1 [Example 275, 1-(4-(5-amino-2-(pyridin-3-yl)thiazolo[5,4-d]pyrimidin-7-yl)piperazin-1-yl)-2-(m-tolyloxy)ethanone] | 3 | –
Nc1nc(N2CCN(C(=O)COc3ccc(Cl)cc3)CC2)c2ccsc2n1 [Example 351, 1-(4-(2-aminothieno[2,3-d]pyrimidin-4-yl)piperazin-1-yl)-2-(4-chlorophenoxy)ethanone] | 1230 | –
CC(C)(Oc1ccc(Cl)cc1)C(=O)N1CCN(c2nc(N)nc3sc(-c4ccccc4)cc23)CC1 [Example 373, 1-(4-(2-amino-6-phenylthieno[2,3-d]pyrimidin-4-yl)piperazin-1-yl)-2-(4-chlorophenoxy)-2-methylpropan-1-one] | 6920 | –
Nc1nc(N2CCN(CC(=O)N3CCCC3)CC2)c2nc(-c3ccc(F)cc3)[nH]c2n1 [Example 410, 2-(4-(2-amino-8-(4-fluorophenyl)-9H-purin-6-yl)piperazin-1-yl)-1-(pyrrolidin-1-yl)ethanone] | > 10000 | –
Nc1nc(N2CCN(C(=O)COc3ccc(OC(F)(F)F)cc3)CC2)c2nc(-c3cccnc3)sc2n1 [Example 273, 1-(4-(5-amino-2-(pyridin-3-yl)thiazolo[5,4-d]pyrimidin-7-yl)piperazin-1-yl)-2-(4-trifluoromethoxyphenoxy)ethanone] | 45 | –
COc1ccc(OCC(=O)N2CCN(c3nc(N)nc4sc(-c5ccc(Cl)cc5)nc34)CC2)cc1 [Example 280, 1-(4-(5-amino-2-(4-chlorophenyl)thiazolo[5,4-d]pyrimidin-7-yl)piperazin-1-yl)-2-(4-methoxyphenoxy)ethanone] | – | > 10000

Structure (SMILES) | IC50 [1] [nM] | IC50 (lowest concentration giving 50% inhibition of the MLR) [nM]
COc1cccc(CCc2nc3c(N4CCN(C(=O)COc5ccc(Br)cc5)CC4)nc(N)nc3s2)c1 [Example 254, 1-(4-(5-amino-2-(3-methoxyphenethyl)thiazolo[5,4-d]pyrimidin-7-yl)piperazin-1-yl)-2-(4-bromophenoxy)ethanone] | 1220 | –
Nc1nc(N2CCN(C(=O)COc3ccc(Cl)cc3)CC2)c2nc(CCc3ccc(Br)cc3)sc2n1 [Example 299, 1-(4-(5-amino-2-(4-bromophenethyl)thiazolo[5,4-d]pyrimidin-7-yl)piperazin-1-yl)-2-(4-chlorophenoxy)ethanone] | 3110 | –
Nc1nc(N2CCN(C(=O)COc3cccc(Cl)c3)CC2)c2nc(CCc3ccc(F)cc3)sc2n1 [Example 228, 1-(4-(5-amino-2-(4-fluorophenethyl)thiazolo[5,4-d]pyrimidin-7-yl)piperazin-1-yl)-2-(3-chlorophenoxy)ethanone] | 1720 | –
Nc1nc(SCc2ccccc2)c2nc(-c3ccc(F)cc3)sc2n1 [Example 28, 7-(benzylthio)-2-(4-fluorophenyl)thiazolo[5,4-d]pyrimidin-5-amine] | > 10000 | –
CC(=O)N1CCN(c2nc(N)nc3[nH]c(-c4ccc(F)cc4)nc23)CC1 [Example 408, 1-(4-(2-amino-8-(4-fluorophenyl)-9H-purin-6-yl)piperazin-1-yl)ethanone] | > 10000 | –
CCCCc1nc(N2CCN(C(=O)COc3ccc(Cl)cc3)CC2)c2cc(-c3ccc(F)cc3)sc2n1 [Example 313, 1-(4-(2-butyl-6-(4-fluorophenyl)thieno[2,3-d]pyrimidin-4-yl)piperazin-1-yl)-2-(4-chlorophenoxy)ethanone] | 1330 | –
Cc1cccc(NC(=O)N2CCN(c3nc(N)nc4sc(Cc5ccc(F)cc5)nc34)CC2)c1 [Example 44, 4-(5-amino-2-(4-fluorobenzyl)thiazolo[5,4-d]pyrimidin-7-yl)-N-m-tolylpiperazine-1-carboxamide] | 400 | –
Nc1nc(N2CCN(C(=O)Nc3ccc(Br)cc3)CC2)c2nc(-c3ccc(F)cc3)sc2n1 [Example 218, 4-(5-amino-2-(4-fluorophenyl)thiazolo[5,4-d]pyrimidin-7-yl)-N-(4-bromophenyl)piperazine-1-carboxamide] | 177 | –
Cc1cc(Cl)ccc1OCC(=O)N1CCN(c2nc(N)nc3sc(-c4ccc(F)cc4)nc23)CC1 [Example 213, 1-(4-(5-amino-2-(4-fluorophenyl)thiazolo[5,4-d]pyrimidin-7-yl)piperazin-1-yl)-2-(4-chloro-2-methylphenoxy)ethanone] | 219 | –
Nc1nc(N2CCN(C(=O)COc3ccc(Cl)cc3)CC2)c2nc(C3CC3)sc2n1 [Example 119, 5-amino-2-cyclopropyl-7-[4-(4-chlorophenoxyacetyl)piperazin-1-yl]-thiazolo[5,4-d]pyrimidine] | 600 | –
Nc1nc(N2CCN(CC(=O)NCCc3ccccc3)CC2)c2nc(CCc3ccc(F)cc3)sc2n1 [Example 141, 5-amino-2-[2-(4-fluorophenyl)ethyl]-7-(4-(phenethylcarbamoyl-methyl)piperazin-1-yl)-thiazolo[5,4-d]pyrimidine] | 1410 | –
Nc1nc(N2CCN(C(=O)COc3ccc(Cl)cc3)CC2)c2nc(-c3ccncc3)sc2n1 [Example 281, 1-(4-(5-amino-2-(pyridin-4-yl)thiazolo[5,4-d]pyrimidin-7-yl)piperazin-1-yl)-2-(4-chlorophenoxy)ethanone] | 41 | –
Cc1cccc(OCC(=O)N2CCN(c3nc(N)nc4sc(-c5ccco5)nc34)CC2)c1 [Example 210, 1-(4-(5-amino-2-(furan-2-yl)thiazolo[5,4-d]pyrimidin-7-yl)piperazin-1-yl)-2-(m-tolyloxy)ethanone] | 72 | –
CN(C(=O)CN1CCN(c2nc(N)nc3sc(CCc4ccc(F)cc4)nc23)CC1)c1ccccc1 [Example 139, 5-amino-2-[2-(4-fluorophenyl)ethyl]-7-(4-[(methylphenylcarbamoyl)-methyl]piperazin-1-yl)-thiazolo[5,4-d]pyrimidine] | 3290 | –
Nc1nc(N2CCN(C(=O)COc3ccc(Cl)cc3)CC2)c2nc(CCOc3ccc(F)cc3)sc2n1 [Example 48, 1-(4-(5-amino-2-(2-(4-fluorophenoxy)ethyl)thiazolo[5,4-d]pyrimidin-7-yl)piperazin-1-yl)-2-(4-chlorophenoxy)ethanone] | 3540 | –
CSc1nc2c(N3CCN(C(=O)COc4ccc(Cl)cc4)CC3)nc(N)nc2[nH]1 [Example 424, 1-(4-(2-amino-8-(methylthio)-9H-purin-6-yl)piperazin-1-yl)-2-(4-chlorophenoxy)ethanone] | 610 | –
